According to patent publication US20070287699A1, “ANTIVIRAL AGENTS” (ViroBay, Inc., priority 2006, published 2007):

System: HCV replicon RNA replication in human Huh7 hepatoma cells
Experiment: HCV replicon assay (activity levels from either or both of HCV replicon assay 1, Huh7/Clone A RT-qPCR, and assay 2, Huh7 ET luc-ubi-neo/ET)
Type: cell-based, Hepatitis C virus (HCV)
Conditions: Hepatitis C virus, Huh-7, either or both HCV replicon assays: Huh7/Clone A, 48 hours, 72 hours, Luc activity or RT-PCR, read-out: inhibit HCV replication at IC50 levels or estimated IC50 levels
In short: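 Huh7/Clone A subgenomic replicon cells treated 48 h at 37° C. with 7 serial dilutions in triplicate (0.5% DMSO final). Replicon RNA measured by TaqMan RT-qPCR on the neo gene, normalized to RiboGreen total RNA; untreated cells set as 100% for IC50.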

SMILES | IC50 [nM]
O=c1c(-c2noc(Cc3ccccc3)n2)cn(Cc2ccc(C(F)(F)F)cc2)c2cc(N3CCNCC3)c(F)cc12 [Compound 70, 3-(5-benzyl-[1,2,4]oxadiazol-3-yl)-6-fluoro-7-piperazin-1-yl-1-(4-trifluoromethyl-benzyl)-1H-quinolin-4-one] | < 500
O=c1c(-c2noc(Cc3ccccc3)n2)cn(Cc2ccc(C(F)(F)F)cc2)c2cc(N3CCCNCC3)c(F)cc12 [Compound 71, 3-(5-benzyl-[1,2,4]oxadiazol-3-yl)-7-[1,4]diazepam-1-yl-6-fluoro-1-(4-trifluoromethyl-benzyl)-1H-quinolin-4-one] | < 500
O=c1c(-c2noc(Cc3ccccc3)n2)cn(Cc2ccc(C(F)(F)F)cc2)c2cc(NCCN3CCOCC3)c(F)cc12 [Compound 72, 3-(5-benzyl-[1,2,4]oxadiazol-3-yl)-6-fluoro-7-(2-morpholin-4-yl-ethylamino)-1-(4-trifluoromethyl-benzyl)-1H-quinolin-4-one] | < 2000
O=c1c(-c2noc(Cc3ccccc3)n2)cn(Cc2ccc(C(F)(F)F)cc2)c2cc(NCCOCCO)c(F)cc12 [Compound 73, 3-(5-benzyl-[1,2,4]oxadiazol-3-yl)-6-fluoro-7-[2-(2-hydroxy-ethoxy)-ethylamino]-1-(4-trifluoromethyl-benzyl)-1H-quinolin-4-one] | < 10000
CN(C)c1cc2c(cc1F)c(=O)c(-c1noc(Cc3ccccc3)n1)cn2Cc1ccc(C(F)(F)F)cc1 [Compound 74, 3-(5-benzyl-[1,2,4]oxadiazol-3-yl)-7-dimethylamino-6-fluoro-1-(4-trifluoromethyl-benzyl)-1H-quinolin-4-one] | < 2000
NCCNc1cc2c(cc1F)c(=O)c(-c1noc(Cc3ccccc3)n1)cn2Cc1ccc(C(F)(F)F)cc1 [Compound 75, 7-(2-amino-ethylamino)-3-(5-benzyl-[1,2,4]oxadiazol-3-yl)-6-fluoro-1-(4-trifluoromethyl-benzyl)-1H-quinolin-4-one] | > 10000
O=C(O)Cc1ccc2c(c1)c(=O)c(-c1noc(Cc3ccccc3)n1)cn2Cc1ccc(C(F)(F)F)cc1F [Compound 76, [3-(5-benzyl-[1,2,4]oxadiazol-3-yl)-1-(2-fluoro-4-trifluoromethyl-benzyl)-4-oxo-1,4-dihydro-quinolin-6-yl]-acetic acid] | > 10000
CN1CCN(c2cc3c(cc2F)c(=O)c(-c2noc(C(C)(C)c4ccccc4)n2)cn3Cc2ccc(C(F)(F)F)cc2F)CC1 [Compound 77, 6-fluoro-1-(2-fluoro-4-trifluoromethyl-benzyl)-3-[5-(1-methyl-1-phenyl-ethyl)-[1,2,4]oxadiazol-3-yl]-7-(4-methyl-piperazin-1-yl)-1H-quinolin-4-one] | < 500
CN1CCN(c2cc3c(cc2F)c(=O)c(-c2noc(C4(c5ccccc5)CC4)n2)cn3Cc2ccc(C(F)(F)F)cc2F)CC1 [Compound 78, 6-fluoro-1-(2-fluoro-4-trifluoromethyl-benzyl)-7-(4-methyl-piperazin-1-yl)-3-[5-(1-phenyl-cyclopropyl)-[1,2,4]oxadiazol-3-yl]-1H-quinolin-4-one] | < 2000
CN1CCN(c2cc3c(cc2F)c(=O)c(-c2noc(Cc4ccccc4)n2)cn3CCc2ccccc2)CC1 [Compound 79, 3-(5-benzyl-[1,2,4]oxadiazol-3-yl)-6-fluoro-7-(4-methyl-piperazin-1-yl)-1-phenethyl-1H-quinolin-4-one] | > 10000
CN1CCN(c2cc3c(cc2F)c(=O)c(-c2noc(C(CCCC(N)=O)c4ccccc4)n2)cn3Cc2ccc(Cl)cc2)CC1 (stereo not drawn) [Compound 80, 5-{3-[1-(4-chloro-benzyl)-6-fluoro-7-(4-methyl-piperazin-1-yl)-4-oxo-1,4-dihydro-quinolin-3-yl]-[1,2,4]oxadiazol-5-yl}-5-phenyl-pentanamide] | < 2000
CN1CCN(c2cc3c(cc2F)c(=O)c(-c2noc(C(CCCC(=O)O)c4ccccc4)n2)cn3Cc2ccc(Cl)cc2)CC1 (stereo not drawn) [Compound 81, 5-{3-[1-(4-chloro-benzyl)-6-fluoro-7-(4-methyl-piperazin-1-yl)-4-oxo-1,4-dihydro-quinolin-3-yl]-[1,2,4]oxadiazol-5-yl}-5-phenyl-pentanoic acid] | < 10000
CN1CCN(c2cc3c(cc2F)c(=O)c(-c2noc(C(CCCCN)c4ccccc4)n2)cn3Cc2ccc(Cl)cc2)CC1 (stereo not drawn) [Compound 82, 3-[5-(5-amino-1-phenyl-pentyl)-[1,2,4]oxadiazol-3-yl]-1-(4-chloro-benzyl)-6-fluoro-7-(4-methyl-piperazin-1-yl)-1H-quinolin-4-one] | < 10000
O=c1c(-c2noc(Cc3ccccc3)n2)cn(Cc2ccc(C(F)(F)F)cc2)c2cc(N(CCO)CCO)c(F)cc12 [Compound 83, 3-(5-benzyl-[1,2,4]oxadiazol-3-yl)-7-[bis-(2-hydroxy-ethyl)-amino]-6-fluoro-1-(4-trifluoromethyl-benzyl)-1H-quinolin-4-one] | < 10000
O=c1c(-c2noc(Cc3ccccc3)n2)cn(Cc2ccc(C(F)(F)F)cc2)c2cc(-n3ccnc3)c(F)cc12 [Compound 84, 3-(5-benzyl-[1,2,4]oxadiazol-3-yl)-6-fluoro-7-imidazol-1-yl-1-(4-trifluoromethyl-benzyl)-1H-quinolin-4-one] | < 2000
CC(=O)NCCCCC(c1ccccc1)c1nc(-c2cn(Cc3ccc(Cl)cc3)c3cc(N4CCN(C)CC4)c(F)cc3c2=O)no1 (stereo not drawn) [Compound 85, N-(5-{3-[1-(4-chloro-benzyl)-6-fluoro-7-(4-methyl-piperazin-1-yl)-4-oxo-1,4-dihydro-quinolin-3-yl]-[1,2,4]oxadiazol-5-yl}-5-phenyl-pentyl)-acetamide] | < 2000
CN1CCN(c2cc3c(cc2F)c(=O)c(-c2noc(C(CCCCNC(=O)OC(C)(C)C)c4ccccc4)n2)cn3Cc2ccc(Cl)cc2)CC1 (stereo not drawn) [Compound 86, tert-butyl (5-{3-[1-(4-chloro-benzyl)-6-fluoro-7-(4-methyl-piperazin-1-yl)-4-oxo-1,4-dihydro-quinolin-3-yl]-[1,2,4]oxadiazol-5-yl}-5-phenyl-pentyl)-carbamate] | < 10000
O=C1CN(c2cc3c(cc2F)c(=O)c(-c2noc(Cc4ccc(F)cc4)n2)cn3Cc2ccc(C(F)(F)F)cc2F)CCN1 [Compound 87, 6-fluoro-3-[5-(4-fluoro-benzyl)-[1,2,4]oxadiazol-3-yl]-1-(2-fluoro-4-trifluoromethyl-benzyl)-7-(3-oxo-piperazin-1-yl)-1H-quinolin-4-one] | < 500
CN1CCN(c2cc3c(cc2F)c(=O)c(-c2noc(C(CCCC#N)c4ccccc4)n2)cn3Cc2ccc(C(F)(F)F)cc2F)CC1 (stereo not drawn) [Compound 88a, 5-{3-[6-fluoro-1-(2-fluoro-4-trifluoromethyl-benzyl)-7-(4-methyl-piperazin-1-yl)-4-oxo-1,4-dihydro-quinolin-3-yl]-[1,2,4]oxadiazol-5-yl}-5-phenyl-pentanenitrile] | < 500
CN1CCN(c2cc3c(cc2F)c(=O)c(-c2noc(Cc4ccc(F)cc4)n2)cn3C2(c3ccc(C(F)(F)F)cc3)CC2)CC1 [Compound 88b, 6-fluoro-3-[5-(4-fluoro-benzyl)-[1,2,4]oxadiazol-3-yl]-7-(4-methyl-piperazin-1-yl)-1-[1-(4-trifluoromethyl-phenyl)-cyclopropyl]-1H-quinolin-4-one] | < 2000
CN1CCN(c2cc3c(cc2F)c(=O)c(-c2noc(C(CCCC(N)=O)c4ccccc4)n2)cn3Cc2ccc(C(F)(F)F)cc2F)CC1 (stereo not drawn) [Compound 89, 5-{3-[6-fluoro-1-(2-fluoro-4-trifluoromethyl-benzyl)-7-(4-methyl-piperazin-1-yl)-4-oxo-1,4-dihydro-quinolin-3-yl]-[1,2,4]oxadiazol-5-yl}-5-phenyl-pentanamide] | < 500
CN1CCN(c2cc3c(cc2F)c(=O)c(-c2noc(C4(c5ccccc5)CC4)n2)cn3C2(c3ccc(C(F)(F)F)cc3)CC2)CC1 [Compound 90, 6-fluoro-7-(4-methyl-piperazin-1-yl)-3-[5-(1-phenyl-cyclopropyl)-[1,2,4]oxadiazol-3-yl]-1-[1-(4-trifluoromethyl-phenyl)-cyclopropyl]-1H-quinolin-4-one] | > 10000
CN1CCN(c2cc3c(cc2F)c(=O)c(-c2noc(Cc4ccc(F)cc4)n2)cn3Cc2cccc(C(F)(F)F)c2)CC1 [Compound 91, 6-fluoro-3-[5-(4-fluoro-benzyl)-[1,2,4]oxadiazol-3-yl]-7-(4-methyl-piperazin-1-yl)-1-(3-trifluoromethyl-benzyl)-1H-quinolin-4-one] | < 2000
CN1CCN(c2cc3c(cc2F)c(=O)c(-c2noc(C(C)(C)c4ccccc4)n2)cn3Cc2ccc(Cl)nc2)CC1 [Compound 92, 1-(6-chloro-pyridin-3-ylmethyl)-6-fluoro-3-[5-(1-methyl-1-phenyl-ethyl)-[1,2,4]oxadiazol-3-yl]-7-(4-methyl-piperazin-1-yl)-1H-quinolin-4-one] | < 500
O=c1c(-c2noc(Cc3ccccc3)n2)cn(Cc2ccc(C(F)(F)F)cc2F)c2ccccc12 [Compound 94, 3-(5-benzyl-[1,2,4]oxadiazol-3-yl)-1-(2-fluoro-4-trifluoromethyl-benzyl)-1H-quinolin-4-one] | > 10000
N#CCCCC(c1ccccc1)c1nc(-c2cn(Cc3ccc(C(F)(F)F)cc3F)c3ccccc3c2=O)no1 (stereo not drawn) [Compound 95, 5-{3-[1-(2-fluoro-4-trifluoromethyl-benzyl)-4-oxo-1,4-dihydro-quinolin-3-yl]-[1,2,4]oxadiazol-5-yl}-5-phenyl-pentanenitrile] | > 10000
CN1CCN(c2cc3c(cc2F)c(=O)c(-c2noc(C(C)(C)c4ccccc4)n2)cn3C2(c3ccc(C(F)(F)F)cc3)CC2)CC1 [Compound 96, 6-fluoro-3-[5-(1-methyl-1-phenyl-ethyl)-[1,2,4]oxadiazol-3-yl]-7-(4-methyl-piperazin-1-yl)-1-[1-(4-trifluoromethyl-phenyl)-cyclopropyl]-1H-quinolin-4-one] | < 500
